Laboratory results from BigSolDB 2.1.

CC1=C(O)C(=O)C(C)O1 (configuration not stated)
solubility (mole fraction) (in ethanol, 283.15 K): 0.12 | solubility (mole fraction) (in ethanol, 288.15 K): 0.151 | solubility (mole fraction) (in ethanol, 293.15 K): 0.188 | solubility (mole fraction) (in ethanol, 298.15 K): 0.234 | solubility (mole fraction) (in ethanol, 303.15 K): 0.287 | solubility (mole fraction) (in ethanol, 308.15 K): 0.351 | solubility (mole fraction) (in ethanol, 313.15 K): 0.427 | solubility (mole fraction) (in methanol, 283.15 K): 0.143 | solubility (mole fraction) (in methanol, 288.15 K): 0.174 | solubility (mole fraction) (in methanol, 293.15 K): 0.21 | solubility (mole fraction) (in methanol, 298.15 K): 0.257 | solubility (mole fraction) (in methanol, 303.15 K): 0.31 | solubility (mole fraction) (in methanol, 308.15 K): 0.374 | solubility (mole fraction) (in methanol, 313.15 K): 0.449 | solubility (mole fraction) (in n-butanol, 283.15 K): 0.0954 | solubility (mole fraction) (in n-butanol, 288.15 K): 0.124 | solubility (mole fraction) (in n-butanol, 293.15 K): 0.156 | solubility (mole fraction) (in n-butanol, 298.15 K): 0.196 | solubility (mole fraction) (in n-butanol, 303.15 K): 0.247 | solubility (mole fraction) (in n-butanol, 308.15 K): 0.307 | solubility (mole fraction) (in n-butanol, 313.15 K): 0.382 | solubility (mole fraction) (in n-hexane, 283.15 K): 0.0054 | solubility (mole fraction) (in n-hexane, 288.15 K): 0.0073 | solubility (mole fraction) (in n-hexane, 293.15 K): 0.0096 | solubility (mole fraction) (in n-hexane, 298.15 K): 0.0125 | solubility (mole fraction) (in n-hexane, 303.15 K): 0.0163 | solubility (mole fraction) (in n-hexane, 308.15 K): 0.0211 | solubility (mole fraction) (in n-hexane, 313.15 K): 0.0271 | solubility (mole fraction) (in n-propanol, 283.15 K): 0.11 | solubility (mole fraction) (in n-propanol, 288.15 K): 0.138 | solubility (mole fraction) (in n-propanol, 293.15 K): 0.174 | solubility (mole fraction) (in n-propanol, 298.15 K): 0.216 | solubility (mole fraction) (in n-propanol, 303.15 K): 0.268 | solubility (mole fraction) (in n-propanol, 308.15 K): 0.332 | solubility (mole fraction) (in n-propanol, 313.15 K): 0.408 | solubility (mole fraction) (in water, 283.15 K): 0.0091 | solubility (mole fraction) (in water, 288.15 K): 0.015 | solubility (mole fraction) (in water, 293.15 K): 0.0251 | solubility (mole fraction) (in water, 298.15 K): 0.0408 | solubility (mole fraction) (in water, 303.15 K): 0.0665 | solubility (mole fraction) (in water, 308.15 K): 0.107 | solubility (mole fraction) (in water, 313.15 K): 0.173
